In brackets after ≈: the same amount, converted by molar mass.
How the values were obtained:
Type in all cases: functional
[1] = test system: Mycobacterium tuberculosis; assay: Antitubercular activity against Mycobacterium tuberculosis H37Rv assessed as bacterial growth inhibition measured after 7 days by direct susceptibility assay; conditions: 168 h, time 7 day
[2] = test system: Mycobacterium tuberculosis; assay: Antitubercular activity against Mycobacterium tuberculosis H37Rv assessed as bacterial growth inhibition by micro broth dilution assay
[3] = test system: Mycobacterium tuberculosis; assay: Antitubercular activity against Mycobacterium tuberculosis H37Rv assessed as bacterial growth inhibition measured after 7 days by broth microdilution assay; conditions: 168 h, time 7 day
[4] = test system: Mycobacterium tuberculosis; assay: Antitubercular activity against Mycobacterium tuberculosis H37Rv ATCC 27294 assessed as bacterial growth inhibition measured after 48 hrs by broth dilution method
[5] = test system: Mycobacterium tuberculosis; assay: Antitubercular activity against Mycobacterium tuberculosis H37Rv assessed as bacterial growth inhibition measured after 7 days by MABA method; conditions: 168 h, time 7 day
[6] = test system: Mycobacterium tuberculosis; assay: Antitubercular activity against Mycobacterium tuberculosis spec. 210 assessed as bacterial growth inhibition
[7] = test system: Mycobacterium tuberculosis; assay: Antitubercular activity against Mycobacterium tuberculosis H37Rv ATCC 25618 assessed as bacterial growth inhibition
[8] = test system: Mycobacterium tuberculosis; assay: Antitubercular activity against Mycobacterium tuberculosis spec. 192 assessed as bacterial growth inhibition
[9] = test system: Mycobacterium tuberculosis; assay: Antitubercular activity against Mycobacterium tuberculosis H37Rv assessed as bacterial growth inhibition
[10] = test system: Mycobacterium tuberculosis; assay: Antitubercular activity against Mycobacterium tuberculosis H37Rv ATCC 27294 assessed as bacterial growth inhibition by agar dilution method
[11] = test system: Mycobacterium tuberculosis; assay: Antitubercular activity against Mycobacterium tuberculosis H37Rv assessed as bacterial growth inhibition measured after 7 days by REMA method; conditions: 168 h, time 7 day
[12] = test system: Mycobacterium tuberculosis; assay: Antitubercular activity against dormant stage of Mycobacterium tuberculosis H37Ra ATCC 25177 assessed as bacterial growth inhibition by XTT assay
[13] = test system: Mycobacterium tuberculosis; assay: Antitubercular activity against active stage of Mycobacterium tuberculosis H37Ra ATCC 25177 assessed as bacterial growth inhibition by XTT assay
[14] = test system: Mycobacterium tuberculosis; assay: Antitubercular activity against Mycobacterium tuberculosis H37Rv assessed as reduction in relative light units at 5 ug/ml incubated for 4 hrs followed by addition of D-luciferin by luciferase based luminometer analysis relative to control; parameters: scale not given: the % may be the effect or the level left; conditions: dose 5 µg/ml
[15] = test system: Mycobacterium tuberculosis; assay: Antitubercular activity against Mycobacterium tuberculosis H37Rv assessed as reduction in relative light units at 25 ug/ml incubated for 4 hrs followed by addition of D-luciferin by luciferase based luminometer analysis relative to control; parameters: scale not given: the % may be the effect or the level left; conditions: dose 25 µg/ml
[16] = test system: Mycobacterium tuberculosis; assay: Antitubercular activity against Mycobacterium tuberculosis H37Rv assessed as bacterial growth inhibition at 6.25 ug/ml measured after 5 to 8 days by radiometric analysis relative to control; parameters: scale not given: the % may be the effect or the level left; conditions: dose 6.25 µg/ml; time 5-8 day
[17] = test system: Mycobacterium tuberculosis; assay: Antitubercular activity against Mycobacterium tuberculosis H37Rv ATCC 27294 assessed as bacterial growth inhibition

Compound: COc1c(N2CCNCC2)c(F)cc2c(=O)c(C(=O)O)cn(C3CC3)c12
- MIC [1]: 1.56 mg/L (≈ 4.32 µM)

Compound: CC(C)=CCC/C(C)=C/COc1ccc(/C=C/c2nnc3c4ccccc4cnn23)cc1
- MIC [2]: 0.5 mg/L

Compound: O=[N+]([O-])c1ncn(CCCCNS(=O)(=O)c2ccc(Cl)s2)n1
- MIC [3]: 3.13 µM (≈ 1.15 µg/mL)

Compound: O=[N+]([O-])c1ncn(CCCCNS(=O)(=O)c2cc(Cl)c(Cl)s2)n1
- MIC [3]: 1.56 µM (≈ 0.624 µg/mL)

Compound: C[C@]1(COc2ccc(-n3cc(COc4ccc(OC(F)(F)F)cc4)nn3)cc2)Cn2cc([N+](=O)[O-])nc2O1
- MIC [4]: 0.23 µM (≈ 0.122 µg/mL)

Compound: CCCCCc1ccc(-c2cn(CC(O)COc3ccc4c(c3)OC3(CCCCC3)CC4=O)nn2)cc1 (stereo unspecified)
- MIC [5]: 0.78 mg/L (≈ 1.55 µM)

Compound: COc1ccc(-n2cc(Cn3nc(-c4ccccc4)c4c3CCN(C(=O)Nc3ccccc3)C4)nn2)cc1
- MIC [6]: 24.7 µM (≈ 12.5 µg/mL)
- MIC [7]: 24.7 µM (≈ 12.5 µg/mL)
- MIC [8]: 24.7 µM (≈ 12.5 µg/mL)

Compound: Cc1ccc2c(c1)C=CC1(CCc3c(nnn3-c3ccccc3)C1)O2 (stereo unspecified)
- MIC [5]: 1.56 mg/L (≈ 4.74 µM)

Compound: COc1ccc(-n2nnc3c2CCC2(C=Cc4cc(Cl)ccc4O2)C3)cc1 (stereo unspecified)
- MIC [5]: 1.56 mg/L (≈ 4.11 µM)

Compound: COc1ccc(-n2nnc3c2CCC2(C=Cc4cc(C)ccc4O2)C3)cc1 (stereo unspecified)
- MIC [5]: 1.56 mg/L (≈ 4.34 µM)

Compound: O=C1Nc2ccccc2/C1=N\OCc1cn(Cc2ccc(Cl)cc2)nn1
- MIC [9]: 1.56 mg/L (≈ 4.24 µM)

Compound: CC1(C)OC2C3OC(C)(C)O[C@H]3C(Cn3cc(N4C(=O)CCCC4=O)nn3)O[C@@H]2O1 (stereo partly specified)
- MIC [10]: 3.12 mg/L (≈ 7.4 µM)

Compound: O=c1nc(NCc2cn(-c3ccc(Cl)cc3)nn2)sc2c(Cl)cc(C(F)(F)F)cc12
- MIC [11]: 0.03 mg/L (≈ 0.0635 µM)

Compound: O=c1nc(NCc2cn(-c3ccc(Cl)cc3)nn2)sc2c(Cl)cc(Cl)cc12
- MIC [11]: 0.03 mg/L (≈ 0.0684 µM)

Compound: Nc1ccc(-c2n[nH]c(=S)[nH]2)cc1
- MIC [12]: 0.46 mg/L (≈ 2.39 µM)
- MIC [13]: > 30 mg/L

Compound: O=c1nc(NCc2cn(-c3ccc(Cl)cc3)nn2)sc2c(Cl)cc(Br)cc12
- MIC [11]: 0.03 mg/L (≈ 0.0621 µM)

Compound: O=C1Nc2ccccc2/C1=N\OCc1cn(Cc2ccc(F)cc2)nn1
- MIC [9]: 0.78 mg/L (≈ 2.22 µM)

Compound: O=c1nc(NCc2cn(-c3ccc(Cl)cc3)nn2)sc2c(Cl)cc(F)cc12
- MIC [11]: 0.03 mg/L (≈ 0.071 µM)

Compound: COc1c(N2CCN(Cc3cn(CCN4C(=O)/C(=N\NC(N)=O)c5cc(Cl)ccc54)nn3)CC2)c(F)cc2c(=O)c(C(=O)O)cn(C3CC3)c12
- MIC [1]: 0.39 mg/L (≈ 0.552 µM)

Compound: CCCCCCc1cn(CCCC2C3CC4CC(C3)CC2C4)nn1.Cl (stereo unspecified)
- MIC [9]: 6.2 mg/L

Compound: c1ccc(-c2cn(Cc3ccc4ccccc4n3)nn2)cc1
- Activity [14]: 58.2%
- Activity [15]: 80.79%

Compound: Cc1nc2ccccc2n2c(-c3ccc([N+](=O)[O-])cc3)nnc12
- Activity [16]: 2%

Compound: COc1ccc(-c2nnc3c(C)nc4ccccc4n23)cc1
- Activity [16]: 2%

Compound: CCOC(=O)c1c(-n2cc(-c3ccc4cc(OC)ccc4c3)nn2)c2ccccc2n(C)c1=O
- MIC [17]: 3.13 mg/L (≈ 6.89 µM)

Compound: O=C(N/N=C/c1cc(Cl)cc(Cl)c1OCc1cn(-c2ccccc2Cl)nn1)c1ccncc1
- MIC [9]: 1.56 mg/L (≈ 3.11 µM)

Compound: Cc1cc(=O)oc2cc(OCc3cn(CCCCCCCCn4cc(COc5cc6oc(=O)cc(C)c6cc5Cl)nn4)nn3)c(Cl)cc12
- MIC [11]: 1.56 mg/L (≈ 2.25 µM)

Compound: O=C(O)c1cn(C2CC2)c2c(NO)c(N3CCN(Cc4cn(CCN5C(=O)/C(=N\O)c6ccccc65)nn4)CC3)c(F)cc2c1=O
- MIC [1]: 0.39 mg/L (≈ 0.617 µM)

Compound: O=C1Nc2ccccc2/C1=N\OCc1cn(Cc2cccc(C(F)(F)F)c2)nn1
- MIC [9]: 3.12 mg/L (≈ 7.79 µM)

Compound: Cc1nc2ccccc2n2c(-c3ccc(Cl)cc3)nnc12
- Activity [16]: 2%

Compound: O=C(O)c1cn(C2CC2)c2cc(N3CCN(Cc4cn(CCN5C(=O)Cc6ccccc65)nn4)CC3)c(F)cc2c1=O
- MIC [1]: 0.2 mg/L (≈ 0.35 µM)

Compound: O=[N+]([O-])c1ccc(-c2n[nH]c(=S)[nH]2)cc1
- MIC [12]: 0.64 mg/L (≈ 2.88 µM)
- MIC [13]: 9.05 mg/L (≈ 40.7 µM)
